Publication PMC4109893 (MedChemComm, 2014)
Read-outs that look alike come from different tables or passages of the source.

System: mammalian GPAT
Assay: GPAT inhibition in vitro
Type: biochemical
Details: for fold increase in inhibitory activity compared to 1c: relative to 1c; for fold decrease in inhibition compared to corresponding linker-free analog: 15a vs 13d, 18b vs 12h; for IC50: read-out: IC50 (µM) ± SD

**Q.** `CCCCCCCCS(=O)(=O)Nc1ccc(-c2ccccc2-c2ccccc2)cc1C(=O)O` [Compound 13e] was tested. Which “fold increase in inhibitory activity compared to 1c” value did it give?
**A.** 2.5 fold

**Q.** For `CCCCCCCCS(=O)(=O)Nc1ccc(-c2ccc(CCCC)cc2)cc1C(=O)O` [Compound 13d], which “fold increase in inhibitory activity compared to 1c” value is on record?
**A.** 2.9 fold

**Q.** For `CCCCCCCCS(=O)(=O)Nc1ccc(C(=O)c2ccc(CCCC)cc2)cc1C(=O)O` [Compound 15a], which “fold decrease in inhibition compared to corresponding linker-free analog” value is on record?
**A.** 3.5 fold

**Q.** What does the source list for `CCCCCCCCS(=O)(=O)Nc1cc(C(=O)c2ccc(-c3ccccc3)cc2)ccc1C(=O)O` [Compound 14b, 4-([1,1'-biphenyl]-4-carbonyl)-2-(octanesulfonamido)benzoic acid]?
**A.** fold increase in inhibitory activity compared to 1c: 3 fold; fold more potent inhibition compared to linker-free analog 13f (relative to 13f): 2 fold

**Q.** Which “inhibitory activity against GPAT (in words)” value (in vitro) does the source give for `CCCCCCCCS(=O)(=O)Nc1ccccc1C(=O)O` [Compound 1c, 2-(octanesulfonamido)benzoic acid] here?
**A.** comparable to 1b

**Q.** With `CCCCCCCCS(=O)(=O)Nc1ccc(-c2ccccc2Cl)cc1C(=O)O` [Compound 13a] as the compound, how does the IC50 (GPAT inhibition by 5-substituted derivatives (Table 2)) read?
**A.** 14.4 ± 1.3 µM

**Q.** `CCCCCCCCS(=O)(=O)Nc1cc(-c2ccccc2O)ccc1C(=O)O` [Compound 12k] was tested. Which IC50 (GPAT inhibition by 4-substituted derivatives (Table 1)) did it give?
**A.** 63.1 ± 5.5 µM

**Q.** Which “fold decrease in inhibition compared to corresponding linker-free analog” value does the source give for `CCCCCCCCS(=O)(=O)Nc1cc(CCc2ccc(OC)cc2)ccc1C(=O)O` [Compound 18b] here?
**A.** 3.2 fold

**Q.** For `CCCCCCCCS(=O)(=O)Nc1ccc(-c2cccc(Cl)c2)cc1C(=O)O` [Compound 13b], which “fold increase in inhibitory activity compared to 1c” value is on record?
**A.** 2.9 fold
